The conditions of data set [1]: Garcia Fortanet et al., J Med Chem 2016; cited from earlier work.
Data set [2] deals with renal fibrosis induced by carbon tetrachloride. The conditions noted are these: Kostallari et al., 2018; cited from earlier work.
The test system of a further data set is Obese diabetic mice. Description: OGTT in obese diabetic mice after chronic SHP2 inhibition. The conditions noted are these: gavage 50 mg/kg/day.
The mark [3] stands for this setting: after 15 days of treatment, compared to control.

Procedure for Obese diabetic mice: Obese diabetic mice were treated by gavage (50 mg/kg/day). After 15 days of treatment an OGTT was performed (FIG. 1).

Take `CC1(N)CCN(c2cnc(-c3cccc(Cl)c3Cl)c(N)n2)CC1` [SHP099, 6-(4-amino-4-methylpiperidin-1-yl)-3-(2,3-dichlorophenyl)pyrazin-2-amine]: in data set [1], the oral bioavailability entry is “good” and the tolerance result is “good tolerance”. Further, the “effectiveness in treatment of renal fibrosis” value in data set [2] is given as “effectiveness in treatment of renal fibrosis”. For the same compound, in the data set with Obese diabetic mice (15 days of treatment), the body composition entry is listed as “without any change” and the weight entry is given as “without any change”. In addition, in the data set on Obese diabetic mice (setting [3]), the fasting blood glucose entry was “decreased fasting blood glucose” and the “glucose tolerance (OGTT)” value is listed as “significant improvement in the glucose tolerance”.

Source of the values: US20250090529A1, “USE OF SHP2 INHIBITORS FOR THE TREATMENT OF INSULIN RESISTANCE” (INSERM (INSTITUT NATIONAL DE LA SANTÉ ET DE LA RECHERCHE …, priority 2018, published 2025).
